In patent US20230050846A1, “TREATMENT OF HEPATIC AND CARDIOVASCULAR DISORDERS” (LIFESEARCH, priority 2019, published 2023):
Like-named read-outs stand apart in the source and are kept apart here. Peptide text beside a SMILES is read from it. * marks the point of attachment. Palmitoyl = CCCCCCCCCCCCCCCC(=O)*

How the values were obtained:
[1] = Pharmacokinetics in mice (plasma, LC-MS/MS); assay type: in vivo, mouse; settings: 25 mg/kg; for MRT: read-out: MRT (mean residence time)
Description: The peptide of formula (I) and the peptide of formula (II) were analyzed in mouse EDTA plasma using a validated assay involving trypsin proteolysis and the subsequent analysis of a signature peptide (SEQ ID NO: 3) by liquid chromatography-tandem mass spectrometry (LC-MS/MS). The working solution of unlabeled peptide (SEQ ID NO: 3, 1 mM) was serially diluted in water to obtain 7 standard solutions ranging 0.05-5 μM. Plasma and standard samples (40 μL) were reduced, alkylated and trypsin-digested overnight using the ready-to-use solutions of the ProteinWorks™ eXpress kit (Waters Corporation, Milford, Mass., USA), according to the manufacturer's instructions (except trypsin incubation time optimized to 7 h). The working solution of the labeled proteotypic peptide ([SEQ ID NO: 4]-[^13C6, ^15N4]-K, 1 mM) was used as internal standard (IS) and added to the digestion buffer to a final concentration of 0.5 μM. After digestion, samples were cleaned using 30 mg Oasis HLB 1 cc Cartridges (Waters Corporation). Cartridges were conditioned, equilibrated, loaded, washed and eluted with methanol (1 mL), water (1 mL), samples (˜200 μL), 5% methanol containing 0.1% TFA (1 mL) and 60% methanol containing 0.1% TFA (1 mL), respectively. Eluates were dried under a nitrogen stream, reconstituted with 100 μL of 10% acetonitrile containing 0.1% formic acid, and 10 μL were injected into the LC-MS/MS system. LC-MS/MS analyses were performed on a Xevo® TQD mass spectrometer with an electrospray (ESI) interface and an Acquity H-Class® UPLC™ device (Waters Corporation). Proteotypic peptides were separated over 9 min on an Acquity® BEH C18 column (2.1×100 mm, 1.7 μm, Waters Corporation) held at 60° C. with a linear gradient of mobile phase B (100% acetonitrile) in mobile phase A (5% acetonitrile), each containing 0.1% formic acid, and at a flow rate of 600 μL/min. […] Proteotypic peptides were then detected by the mass spectrometer with the ESI interface operating in the positive ion mode (capillary voltage, 3 kV; desolvatation gas (N2) flow and temperature, 900 L/h and 400° C.; source temperature, 150° C.). The multiple reaction monitoring mode was applied for MS/MS detection (SEQ ID NO: 3, m/z 368.8→536.5, y6^+; [SEQ ID NO: 4]-[^13C6, ^15N4]-K, m/z 372.8→544.4, y6) with cone and collision voltages set at 20 and 14 V, respectively. Data acquisition and analyses were performed with MassLynx® and TargetLynx® software, respectively (version 4.1, Waters Corporation). Chromatographic peak area ratio between unlabeled peptide and IS constituted the detector responses. Standard solutions were used to plot calibration curves for peptide quantification. The linearity was expressed by the mean r^2 which was greater than 0.998 (linear regression, 1/x weighting, origin excluded). […] The peptide of formula (I) and the peptide of formula (II) concentrations were expressed in μM assuming 1 mole of peptide equivalent to 1 mole of the peptide of formula (I) and the peptide of formula (II), respectively. Concentrations were then converted to their standard unit (ng/mL) assuming molecular weights of 3540 Da and 3917 Da for the peptide of formula (I) and the peptide of formula (II), respectively.
Wild-type C57B/L6J male mice were purchased from Janvier Labs (Le Genest Saint Isle, France). Mice were caged in animal rooms under specific pathogen free conditions at the animal facility of Rangueil (Anexplo platform, US006, Toulouse, France) with a light/dark schedule of 12 h/12 h and were fed ad libitum with a normal chow diet (#V1535 R/M-H, Ssniff, Germany). All animal experimental procedures were conducted in accordance with institutional guidelines on animal experimentation approved by the local ethical committee of animal care and are conformed to the guidelines from Directive 2010/63/EU of the European Parliament on the protection of animals used for scientific purposes or the NIH guideline. […]

HepG2 cells = assay: HDL endocytosis assay in hepatocytes; assay type: cell-based, human; settings: 1 μM; HDL-Alexa568 50 μg/mL, 25 min; abolished by IF1 1 μM
Description: HepG2 cells were seeded on 96-well plates at 50,000 cells/well. HDL3 (d 1.12-1.21) were isolated from plasma of healthy human donors and referred to as HDL. HDL was fluorescently labeled with AlexaFluor®568 dye (A10238, Thermofisher Scientific) according the instructions of manufacturer. 1 h30 before the assay, the cells were serum starved for 1 h30 in order to stabilize nucleotide secretion. Cells were incubated with inhibitors (H49K, 1 μM) for 10 min before treatment with the different peptides (1 μM) or apoA-I (10 μg/ml) purified from human plasma. 5 min after peptide treatment, endocytosis was initiated by 50 μg/mL of AlexaFluor568®-labelled HDL. The same experiment was performed with a […] excess of unlabelled HDL (2.5 mg/mL) to determine the nonspecific fluorescence signal. After 25 min at 37° C., cells were then washed in serum-free DMEM and extracellular membrane-bound HDL was disassociated by incubating cells at 4° C. in serum-free DMEM for 90 min. Following washes, cells were lysate in NaOH 0.1M SDS 1% during 2 h, lysates were transferred in a black 96-wells plate and fluorescence was recorded at 568 nm (Varioscan flash). Fluorescence for each condition was substrate with the value obtained in unlabelled HDL condition, and results were expressed as the fold change as compared with the basal condition (untreated cells).

[2] = system: primary mouse hepatocytes; assay: Steatotic primary mouse hepatocytes, intracellular triglyceride content; assay type: cell-based; settings: 1 μM, 24 h
Description: Primary mouse hepatocytes were isolated as described in Example 3 from mice fed western-diet for 11-weeks (Envigo #TD.88137 containing 0.2% cholesterol, 42% kcal from fat, 34% sucrose by weight). Primary mouse hepatocytes were seeded in a 12-well plate at a density of 600,000 cells/well in growth medium and treated for 24 h with apoA-I (10 μg/mL), peptide of formula (I) (1 μM) or peptide of formula (II) (1 μM).
For measurement of intracellular triglyceride content, cells were washed with PBS and scraped in 5% NP-40 lysis buffer and heated for 10 min at 85° C. Triglycerides were then quantified using triglyceride commercial kit (Biolabo #87319). Values were normalized to protein concentration in cell lysates.

[3] = male, C57B/L6J, mouse, plasma, sc
[4] = male, C57B/L6J, mouse, plasma, sc, sc
[5] = male, C57B/L6J, mouse, plasma, sc, sc, read-out: t1/2lbd1 (distribution half-life) (converted)
[6] = male, C57B/L6J, mouse, plasma, sc, sc, read-out: t1/2lbdz (elimination half-life) (converted)

AUC [1, 3] [ng·h/mL]	Cmax [1, 3] [ng/mL]	Tmax [1, 3] [min]	MRT [1, 4] [min]	half-life [1, 5] [min]	half-life [1, 6] [min]	Cl (total plasma clearance) ([1]; sc) [mL/min/kg]	Vd (volume of distribution) ([1]; sc) [L/kg]	AUC ([1]; male, C57B/L6J, mouse, plasma, iv) [ng·h/mL]	MRT ([1]; male, C57B/L6J, mouse, plasma, iv, iv) [min]	half-life ([1]; male, C57B/L6J, mouse, plasma, iv, iv, read-out: t1/2lbd1 (distribution half-life) (converted)) [min]	half-life ([1]; male, C57B/L6J, mouse, plasma, iv, iv, read-out: t1/2lbdz (elimination half-life) (converted)) [min]	clearance ([1]; male, C57B/L6J, mouse, plasma, iv, read-out: Cl (total plasma clearance) (converted)) [mL/min/kg]	Vd ([1]; male, C57B/L6J, mouse, plasma, iv, read-out: Vd (volume of distribution)) [L/kg]	Compound	effect on HDL endocytosis (HepG2 cells)	intracellular accumulation of triglycerides vs PBS control [2]
211000	25600	240	349	125	752	0.83	1							CCCCCCCCCCCCCCCC(=O)NCCCC[C@H](NC(=O)[C@H](CCC(=O)O)NC(=O)[C@H](CCCNC(=N)N)NC(=O)[C@H](CO)NC(=O)[C@H](CCC(N)=O)NC(=O)[C@H](C)NC(=O)[C@H](CCCNC(=N)N)NC(=O)[C@H](Cc1ccccc1)NC(=O)[C@H](Cc1ccc(O)cc1)NC(=O)[C@H](CCCNC(=N)N)NC(=O)[C@H](CCC(=O)O)NC(=O)[C@H](CCC(=O)O)NC(=O)[C@H](CCC(=O)O)NC(=O)[C@H](C)NC(=O)[C@H](CCC(N)=O)NC(=O)[C@H](CCC(=O)O)NC(=O)[C@H](CCCNC(=N)N)NC(=O)[C@H](CCCCN)NC(=O)CNC(=O)[C@H](Cc1ccccc1)NC(=O)[C@H](C)NC(=O)CNC(=O)CNC(=O)[C@H](C)NC(=O)[C@H](CCC(=O)O)NC(=O)[C@H](CCCNC(=N)N)NC(=O)[C@@H](NC(=O)[C@H](CO)NC(=O)CNC(=O)[C@H](C)NC(=O)CNC(=O)[C@H](CCCNC(=N)N)NC(C)=O)[C@@H](C)CC)C(N)=O [peptide of formula (II), CH3CO-[SEQ ID NO: 1]-K-[palmitoyl]-NH2] (Ac-RGAGSIREAGGAFGKREQAEEERYFRAQSREK(Palmitoyl)-NH2)	stimulated	significantly reduced
6140	8290	15	33	11.4	12.6		0.5	13300	8.4	3.6	15.6	31.7	0.7	Ac-RGAGSIREAGGAFGKREQAEEERYFRAQSRE-NH2 [peptide of formula (I), CH3CO-[SEQ ID NO: 1]-NH2]	stimulated	significantly reduced
